In PMC7758046, “Novel piperazine–chalcone hybrids and related pyrazoline analogues targeting VEGFR-2 kinase; design, synthesis, molecular docking studies, and anticancer evaluation” (Journal of Enzyme Inhibition and Medicinal Chemistry, 2020):
Entries after “also recorded” stand apart in the source; their conditions may differ.

Legend:
HCT-116 cells [1] = assay: Cell cycle analysis by DNA flow cytometry; type: cell-based, human; details: 10 µM; for %Pre-G1 / %G2/M / %S / %G0/G1: 24 h; for %Pre-G1: control 1.97; for %G2/M: control 15.44; for %S: control 30.18; for %G0/G1: control 54.38
Procedure: Flow cytometric analysis is considered a valuable method for determining and analysing the cell cycle parameters. […] The effect on the cell cycle distribution was assessed by a DNA flow cytometry analysis and the cell cycle parameters were compared to untreated control cells in HCT-116 cells which had been incubated with 10 µM of Vd and Ve compounds and the results are shown in Table 3 and Figure 3.
HCT-116 cells were seeded at concentrations of 1 × 10^5 cells per well in a six-well plate, then incubated for 24 h. The cells were treated for 24 h with vehicles (0.1% DMSO) or 10 µM of Vd or Ve compounds. Using ice-cold, 70% ethanol at 4 °C, cells were harvested and fixed for 12 h after that. Ethanol removal and cold PBS washing of the cells were done. Then incubated in 0.5 mL of PBS containing 1 mg/mL Ranse for 30 min at 37 °C. In the dark, the cells were stained with PI for 30 min. Flow cytometer was then used to detect contents of DNA[62].

human VEGFR-2 = target: T1, human VEGFR-2 (Homo sapiens, UniProt P35968); assay: In vitro VEGFR-2 inhibitory assay (colorimetric human VEGFR-2 ELISA, HTScan VEGF Receptor 2 Kinase Assay Kit); type: biochemical; details: VEGFR-2 inhibition
T1 construct: It includes active VEGFR-2 kinase; purchased HTScan VEGF Receptor 2 Kinase Assay Kit
T1 sequence (P35968 20-1356): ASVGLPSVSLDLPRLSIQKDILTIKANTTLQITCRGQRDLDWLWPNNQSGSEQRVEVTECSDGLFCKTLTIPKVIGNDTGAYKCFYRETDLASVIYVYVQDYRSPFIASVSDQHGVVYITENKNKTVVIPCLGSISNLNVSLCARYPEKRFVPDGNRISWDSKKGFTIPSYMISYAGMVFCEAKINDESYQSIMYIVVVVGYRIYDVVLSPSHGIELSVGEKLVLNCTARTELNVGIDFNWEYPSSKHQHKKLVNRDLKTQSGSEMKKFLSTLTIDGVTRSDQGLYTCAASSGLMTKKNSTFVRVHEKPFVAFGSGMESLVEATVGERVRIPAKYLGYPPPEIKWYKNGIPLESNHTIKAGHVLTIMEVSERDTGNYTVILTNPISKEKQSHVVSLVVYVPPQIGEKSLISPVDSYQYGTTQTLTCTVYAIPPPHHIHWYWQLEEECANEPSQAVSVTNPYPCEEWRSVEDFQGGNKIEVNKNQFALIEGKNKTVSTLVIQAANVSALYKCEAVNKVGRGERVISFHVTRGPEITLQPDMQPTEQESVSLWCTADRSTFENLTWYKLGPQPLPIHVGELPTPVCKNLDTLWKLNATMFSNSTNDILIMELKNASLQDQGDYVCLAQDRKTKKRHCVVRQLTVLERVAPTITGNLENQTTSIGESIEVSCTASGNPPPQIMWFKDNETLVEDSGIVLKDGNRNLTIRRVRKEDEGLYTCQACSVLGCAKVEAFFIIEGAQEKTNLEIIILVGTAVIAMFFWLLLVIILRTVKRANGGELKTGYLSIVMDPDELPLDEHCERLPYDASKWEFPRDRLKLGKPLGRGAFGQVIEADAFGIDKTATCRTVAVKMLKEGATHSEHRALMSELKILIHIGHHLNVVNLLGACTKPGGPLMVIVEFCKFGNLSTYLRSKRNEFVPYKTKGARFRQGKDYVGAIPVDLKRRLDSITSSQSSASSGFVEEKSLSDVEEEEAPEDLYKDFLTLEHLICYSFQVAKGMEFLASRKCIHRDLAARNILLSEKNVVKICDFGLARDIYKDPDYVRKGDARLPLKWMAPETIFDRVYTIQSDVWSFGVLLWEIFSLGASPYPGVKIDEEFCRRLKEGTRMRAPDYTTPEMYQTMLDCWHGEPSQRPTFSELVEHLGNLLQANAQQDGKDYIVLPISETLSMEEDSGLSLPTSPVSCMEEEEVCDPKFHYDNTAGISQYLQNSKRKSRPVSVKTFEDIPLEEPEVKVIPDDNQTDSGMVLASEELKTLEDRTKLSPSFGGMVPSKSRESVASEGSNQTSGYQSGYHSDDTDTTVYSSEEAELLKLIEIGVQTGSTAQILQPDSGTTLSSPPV
Procedure: VEGFR is considered as an important target for the development of potential anti-cancer candidates.
On a 96-well plate, a particular VEGFR-2 antibody was seeded and 100 µL of the normal solution or compound tested was applied, incubated at room temperature for 2.5 h and washed.
Then, 100 µL of the prepared biotin antibody was added, incubated for an additional 1 h at room temperature and washed. Following, 100 µL of streptavidin solution was added at room temperature, incubated for 45 min and then, 100 µL of TMB substrate solution was applied and incubated at room temperature for 30 min. Finally, 50 µL stop solution was added and the absorption was measured at 450 nm instantly. The standard curve, the X-axis concentrations, and the Y-axis absorbance were drawn.

OVCAR-3 (Ovarian cancer) = assay: NCI-60 single-dose anticancer screen; type: cell-based, human; details: 10 µM single dose
Procedure: (§1) Six compounds were selected by the NCI, according to NCI’s DTP selection guidelines, for evaluation of their anticancer activity at a single-dose of 10 µM against 60 human tumours cell lines.
(§2) In vitro cytotoxicity was performed in NCI according to reported method.

HL-60(TB) (Leukaemia) = assay: NCI-60 single-dose anticancer screen; type: cell-based, human; details: 10 µM single dose; for inhibition at 10 µM: Homo sapiens, read-out: cell growth inhibition
Procedure: as §1, §2

OVCAR-4 (Ovarian cancer) = assay: NCI-60 single-dose anticancer screen; type: cell-based, human; details: 10 µM single dose
Procedure: as §1, §2

[2] = test system: A549/ATCC (Non-small cell lung cancer); assay: NCI-60 single-dose anticancer screen; type: cell-based, human; details: 10 µM single dose
Procedure: as §1, §2

SK-MEL-5 (Melanoma) = assay: NCI-60 single-dose anticancer screen; type: cell-based, human; details: 10 µM single dose
Procedure: as §1, §2

SNB-19 (CNS cancer) = assay: NCI-60 single-dose anticancer screen; type: cell-based, human; details: 10 µM single dose
Procedure: as §1, §2

SK-OV-3 (Ovarian cancer) = assay: NCI-60 single-dose anticancer screen; type: cell-based, human; details: 10 µM single dose
Procedure: as §1, §2

MOLT-4 (Leukaemia) = assay: NCI-60 single-dose anticancer screen; type: cell-based, human; details: 10 µM single dose
Procedure: as §1, §2

[3] = test system: EKVX (Non-small cell lung cancer); assay: NCI-60 single-dose anticancer screen; type: cell-based, human; details: 10 µM single dose
Procedure: as §1, §2

HCC-2998 (Colon cancer) = assay: NCI-60 single-dose anticancer screen; type: cell-based, human; details: 10 µM single dose
Procedure: as §1, §2

SF-539 (CNS cancer) = assay: NCI-60 single-dose anticancer screen; type: cell-based, human; details: 10 µM single dose
Procedure: as §1, §2

HCT-116 (Colon cancer) = assay: NCI-60 single-dose anticancer screen; type: cell-based, human; details: for cell growth promotion: 10 µM single dose; for inhibition at 10 µM: Homo sapiens, read-out: cell growth inhibition
Procedure: as §1, §2

UACC-62 (Melanoma) = assay: NCI-60 single-dose anticancer screen; type: cell-based, human; details: 10 µM single dose
Procedure: as §1, §2

HCT-116 cells [4] = assay: Annexin V-FITC/PI apoptosis assay; details: for Apoptosis Early: control 0.51; for Necrosis: control 1.21; for Apoptosis Total: control 1.97

Compound	Comment (cell cycle arrest phase) (HCT-116 cells [1])	%Pre-G1 (HCT-116 cells [1])	%G2/M (HCT-116 cells [1])	IC50 (human VEGFR-2)	cell growth promotion (OVCAR-3 (Ovarian cancer))	cell growth promotion (HL-60(TB) (Leukaemia))	inhibition at 10 µM (HL-60(TB) (Leukaemia))	cell growth promotion (OVCAR-4 (Ovarian cancer))	cell growth promotion [2]	cell growth promotion (SK-MEL-5 (Melanoma))	cell growth promotion (SNB-19 (CNS cancer))	cell growth promotion (SK-OV-3 (Ovarian cancer))	cell growth promotion (MOLT-4 (Leukaemia))	cell growth promotion [3]	cell growth promotion (HCC-2998 (Colon cancer))	cell growth promotion (SF-539 (CNS cancer))	cell growth promotion (HCT-116 (Colon cancer))	inhibition at 10 µM (HCT-116 (Colon cancer))	cell growth promotion (UACC-62 (Melanoma))	melting point	other results
O=C(C=Cc1cccc(F)c1)c1ccc(N2CCNCC2)cc1 [Vd, 3-(3-Fluorophenyl)-1-(4-(piperazin-1-yl)phenyl)prop-2-en-1-one]	arrest HCT-116 cell cycle in the G2/M phase; also recorded: induced cell arrest at G2/M phase	16.54%	50.44%	0.8 µM	93.74%	60.38%	39.2%	80.53%	76.84%	76.85%	71.95%	79.98%	68.62%	95.54%	94.99%	94.49%	42.08%	57.9%	79.23%	–	%S (HCT-116 cells [1]): 27.78%; %G0/G1 (HCT-116 cells [1]): 21.78%; total increase in apoptosis compared to the control (HCT-116 cells [4]): approximately 18.7 fold; Apoptosis Late (HCT-116 cells [4]; 10 µM, 24 h, control 0.25): 10.32%; Apoptosis Early (HCT-116 cells [4]; 10 µM, 24 h): 3.92%; Necrosis (HCT-116 cells [4]; 10 µM, 24 h): 2.3%; Apoptosis Total (HCT-116 cells [4]; 10 µM, 24 h): 16.54%
N#Cc1ccccc1C1CC(c2ccc(N3CCNCC3)cc2)=NN1 (stereo not drawn) [VIa, 2-(3-(4-(Piperazin-1-yl)phenyl)-4,5-dihydro-1H-pyrazol-5-yl)benzonitrile]	–	–	–	1.48 µM	101.64%	81.63%	–	101.39%	78.06%	93.27%	95.34%	96.47%	96.02%	101.50%	96.75%	105.04%	85.83%	14.2%	88.47%	165 °C	inhibition at 10 µM ([2]; Homo sapiens, read-out: cell growth inhibition): 21.9%
O=C(C=Cc1ccncc1F)c1ccc(N2CCNCC2)cc1 [Vf, 3-(3-Fluoropyridin-4-yl)-1-(4-(piperazin-1-yl)phenyl)prop-2-en-1-one]	–	–	–	1.33 µM	106.22%	79.28%	20.7%	110.55%	78.75%	101.11%	96.07%	96.68%	91.63%	99.11%	100.88%	101.29%	73.87%	26.1%	92.01%	225 °C	–
Fc1cnccc1C1CC(c2ccc(N3CCNCC3)cc2)=NN1 (stereo not drawn) [VIc, 1-(4-(5-(3-Fluoropyridin-4-yl)-4,5-dihydro-1H-pyrazol-3-yl)phenyl) piperazine]	–	–	–	1.31 µM	98.79%	77.32%	–	108.25%	76.20%	85.78%	97.45%	85.00%	74.15%	91.04%	101.72%	104.39%	73.82%	26.2%	81.93%	135 °C	–
COc1cc(C2CC(c3ccc(N4CCNCC4)cc3)=NN2)ccc1F (stereo not drawn) [VIb, 1-(4-(5-(4-Fluoro-3-methoxyphenyl)-4,5-dihydro-1H-pyrazol-3-yl)phenyl) piperazine]	–	–	–	1.06 µM	91.15%	76.95%	–	91.49%	68.21%	80.94%	95.65%	83.58%	72.10%	95.41%	104.57%	84.21%	61.10%	38.9%	86.00%	195 °C	–
COc1cc(C=CC(=O)c2ccc(N3CCNCC3)cc2)ccc1F [Ve, 3-(4-Fluoro-3-methoxyphenyl)-1-(4-(piperazin-1-yl)phenyl) prop-2-en-1-one]	arrest HCT-116 cell cycle in the G2/M phase; also recorded: induced cell arrest at G2/M phase	18.22%	46.85%	0.57 µM	70.18%	28.91%	71.1%	68.87%	67.25%	79.33%	59.87%	87.98%	80.75%	97.12%	100.21%	95.87%	27.43%	72.6%	80.13%	–	%S (HCT-116 cells [1]): 28.58%; %G0/G1 (HCT-116 cells [1]): 24.57%; total increase in apoptosis compared to the control (HCT-116 cells [4]): ~21.2 fold; Apoptosis Early (HCT-116 cells [4]; 10 µM, 24 h): 4.76%; Necrosis (HCT-116 cells [4]; 10 µM, 24 h): 2.11%; Apoptosis Total (HCT-116 cells [4]; 10 µM, 24 h): 18.22%
